Read-outs that look alike come from different tables or passages of the source.
What was measured:
Format in all cases: in vivo
[1] = system: Abutilon theophrasti (ABUTH); assay: Post-emergence herbicidal action against ABUTH; settings: visual rating about 3 weeks after treatment vs untreated controls (100% = plants have died, 0% = like control plants)
In short: (§1)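 Doses of 320 g/ha or lower, suffixes a, b and c marking different dosages, were applied post-emergence at the one-leaf stage in 600 l/ha water with 0.5% additive. Damage was assessed visually after about 3 weeks in the greenhouse.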

[2] = system: Alopecurus myosuroides (ALOMY); assay: Post-emergence herbicidal action against ALOMY; settings: 320 g/ha, visual rating about 3 weeks after treatment vs untreated controls (100% = plants have died, 0% = like control plants)
In short: as §1

[3] = system: Amaranthus retroflexus (AMARE); assay: Post-emergence herbicidal action against AMARE
In short: as §1

[4] = system: Avena fatua (AVEFA); assay: Post-emergence herbicidal action against AVEFA; settings: 320 g/ha, visual rating about 3 weeks after treatment
In short: as §1

[5] = system: Digitaria sanguinalis (DIGSA); assay: Post-emergence herbicidal action against DIGSA; settings: visual rating about 3 weeks after treatment
In short: as §1

[6] = system: Echinochloa crus-galli (ECHCG); assay: Post-emergence herbicidal action against ECHCG
In short: as §1

[7] = system: Matricaria inodora (MATIN); assay: Post-emergence herbicidal action against MATIN
In short: as §1

[8] = system: Pharbitis purpurea (PHBPU); assay: Post-emergence herbicidal action against PHBPU
In short: as §1

[9] = system: Polygonum convolvulus (POLCO); assay: Post-emergence herbicidal action against POLCO
In short: as §1

[10] = system: Setaria viridis (SETVI); assay: Post-emergence herbicidal action against SETVI
In short: as §1

[11] = system: Verconica persica (VERPE); assay: Post-emergence herbicidal action against VERPE
In short: as §1

[12] = system: Viola tricolor (VIOTR); assay: Post-emergence herbicidal action against VIOTR
In short: as §1

[13] = system: Oryza sativa (ORYSA); settings: crop plant compatibility
In short: (§2)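 One-leaf-stage crops (2–3 wk post-sowing, sandy loam, greenhouse) sprayed on green parts; 0.5% additive, 600 l/ha water. Rated by eye ~3 wk later, % vs untreated; suffixes a/b/c mark different dosages.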

[14] = system: Triticum aestivum (TRZAS); settings: crop plant compatibility, effect vs untreated controls
In short: as §2

[15] = system: Zea mays (ZEAMX); settings: for Post-emergence action against ZEAMX in % (crop plant compatibility): 20 g/ha, effect in comparison to untreated controls; for Post-emergence action against ZEAMX in %: crop plant compatibility, 80 g/ha, effect vs untreated controls
In short: as §2

[16] = system: Lolium rigidum (LOLRI); assay: Post-emergence herbicidal action against LOLRI
In short: as §1

[17] = 80 g/ha, visual rating about 3 weeks after treatment vs untreated controls (100% = plants have died, 0% = like control plants)
[18] = 320 g/ha, visual rating about 3 weeks after treatment
[19] = 20 g/ha, effect vs untreated controls
[20] = 80 g/ha, effect in comparison to untreated controls
[21] = 320 g/ha, effect in comparison to untreated controls

SMILES	Post-emergence action against ABUTH in % ([1]; 320 g/ha)	Post-emergence action against ALOMY in % [2]	Post-emergence action against AMARE in % [3, 18]	Post-emergence action against AVEFA in % [4]	Post-emergence action against DIGSA in % ([5]; 320 g/ha)	Post-emergence action against ECHCG in % ([6]; dosage 80 g/ha)	Post-emergence action against ECHCG in % ([6]; dosage 320 g/ha)	Post-emergence action against MATIN in % ([7]; dosage 320 g/ha)	Post-emergence action against PHBPU in % ([8]; dosage 80 g/ha)	Post-emergence action against PHBPU in % ([8]; dosage 320 g/ha)	Post-emergence action against POLCO in % ([9]; dosage 320 g/ha)	Post-emergence action against SETVI in % ([10]; dosage 320 g/ha)	Post-emergence action against VERPE in % ([11]; 320 g/ha, VERPE)	Post-emergence action against VERPE in % ([11]; dosage 80 g/ha)	Post-emergence action against VIOTR in % ([12]; 80 g/ha)	Post-emergence action against VIOTR in % ([12]; 320 g/ha)	Post-emergence action against ORYSA in % [13, 19]	Post-emergence action against TRZAS in % ([14]; 20 g/ha)	Post-emergence action against ZEAMX in % (crop plant compatibility) [15]	Post-emergence action against ORYSA in % [13, 20]	other results
Cc1cccnc1-n1nc(OCC(=O)O)c(Cl)c1-c1cncc(F)c1 [Example I-182]	80%	80%	90%	90%	100%	90%	90%	90%	90%	90%	90%	80%	90%	80%	80%	90%	10%	10%	10%	–	Post-emergence action against ABUTH in % ([1]; 80 g/ha): 80%; Post-emergence action against AMARE in % [3, 17]: 80%; Post-emergence action against DIGSA in % ([5]; 80 g/ha): 90%; Post-emergence action against MATIN in % ([7]; dosage 80 g/ha): 80%; Post-emergence action against POLCO in % ([9]; dosage 80 g/ha): 80%; Post-emergence action against SETVI in % ([10]; dosage 80 g/ha): 80%; Post-emergence action against ZEAMX in % [15]: 20%
N#CCOC(=O)COc1nn(-c2ncccc2F)c(-c2ccc(F)nc2)c1C1CC1 [Example I-294]	80%	90%	80%	90%	90%	80%	90%	90%	–	–	–	90%	90%	90%	90%	90%	10%	10%	20%	–	Post-emergence action against DIGSA in % ([5]; 80 g/ha): 80%; Post-emergence action against LOLRI in % ([16]; dosage 320 g/ha): 90%; Post-emergence action against SETVI in % ([10]; dosage 80 g/ha): 90%
O=C(COc1nn(-c2ncccc2F)c(-c2ccc(F)nc2)c1C1CC1)OCc1ccccc1 [Example I-287]	90%	90%	80%	90%	80%	90%	90%	80%	–	80%	–	90%	80%	80%	80%	90%	0%	20%	10%	20%	Post-emergence action against AMARE in % [3, 17]: 80%; Post-emergence action against DIGSA in % ([5]; 80 g/ha): 80%; Post-emergence action against LOLRI in % ([16]; dosage 80 g/ha): 90%; Post-emergence action against LOLRI in % ([16]; dosage 320 g/ha): 90%; Post-emergence action against SETVI in % ([10]; dosage 80 g/ha): 90%; Post-emergence action against ZEAMX in % [15]: 20%
COC(=O)CCOC(=O)COc1nn(-c2cccnc2C)c(-c2cncc(F)c2)c1Br [II-41]	80%	90%	80%	90%	80%	–	90%	80%	80%	90%	–	90%	90%	90%	80%	90%	0%	0%	0%	0%	Post-emergence action against ORYSA in % [13, 21]: 0%; Post-emergence action against TRZAS in % ([14]; 80 g/ha): 0%; Post-emergence action against ZEAMX in % [15]: 0%
Cc1ncccc1-n1nc(OCC(=O)OCC2CCCO2)c(Br)c1-c1cncc(F)c1 (stereo not drawn) [II-43]	80%	100%	90%	90%	80%	–	90%	80%	80%	90%	80%	90%	90%	90%	90%	90%	0%	10%	0%	0%	Post-emergence action against ORYSA in % [13, 21]: 0%; Post-emergence action against ZEAMX in % [15]: 20%
O=C(O)COc1nn(-c2ncccc2F)c(-c2cncc(F)c2)c1Cl [Example I-169]	–	–	–	80%	90%	80%	90%	90%	80%	90%	80%	80%	90%	80%	–	80%	0%	0%	10%	10%	Post-emergence action against LOLRI in % ([16]; dosage 320 g/ha): 80%; Post-emergence action against MATIN in % ([7]; dosage 80 g/ha): 80%; Post-emergence action against POLCO in % ([9]; dosage 80 g/ha): 80%; Post-emergence action against ZEAMX in % [15]: 10%
CCOC(=O)COc1nn(-c2ccncc2F)c(-c2ccc(F)nc2)c1Br [III-29]	80%	90%	–	–	90%	80%	80%	90%	80%	90%	80%	90%	80%	–	–	–	10%	20%	10%	20%	Post-emergence action against LOLRI in % ([16]; dosage 320 g/ha): 80%; Post-emergence action against MATIN in % ([7]; dosage 80 g/ha): 80%
COC(=O)COc1nn(-c2ncccc2C)c(-c2cncc(F)c2)c1Br [Example I-179]	80%	90%	90%	90%	90%	90%	90%	90%	80%	90%	90%	90%	90%	90%	90%	90%	0%	0%	–	20%	Post-emergence action against ABUTH in % ([1]; 80 g/ha): 80%; Post-emergence action against AMARE in % [3, 17]: 90%; Post-emergence action against DIGSA in % ([5]; 80 g/ha): 90%; Post-emergence action against MATIN in % ([7]; dosage 80 g/ha): 80%; Post-emergence action against POLCO in % ([9]; dosage 80 g/ha): 90%; Post-emergence action against SETVI in % ([10]; dosage 80 g/ha): 90%; Post-emergence action against ZEAMX in % [15]: 20%
CCOC(=O)COc1nn(-c2cccnc2C)c(-c2cncc(F)c2)c1Br [II-45]	80%	90%	80%	90%	80%	–	90%	90%	–	90%	90%	90%	90%	90%	90%	90%	0%	0%	–	0%	Post-emergence action against POLCO in % ([9]; dosage 80 g/ha): 80%
